Results taken from PubChem BioAssay (NCI).
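Method: 48-hour compound exposure of cells in 96-well plates, five concentrations, linear interpolation of endpoints. TGI is the concentration that stops growth completely.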

Tests used:
Assay in all cases: NCI tumour cell line growth inhibition, 48 h
DMS 114 small cell lung = test system: DMS 114 small cell lung
LXFL 529 NSCLC = test system: LXFL 529 NSCLC
M19-MEL melanoma = test system: M19-MEL melanoma
P388 leukemia = test system: P388 leukemia
P388/ADR leukemia = test system: P388/ADR leukemia
SN12K1 renal = test system: SN12K1 renal

## c1c(N2CCOCC2)ssc1=[N+]1CCOCC1
DMS 114 small cell lung
  TGI: > 100 µM
LXFL 529 NSCLC
  TGI: > 100 µM

## CCCO/N=[N+](\[O-])N(CC)CC
LXFL 529 NSCLC
  TGI: > 100 µM

## CC(=O)OC1CC2(O)C(CCC3(C)C(c4ccc(=O)oc4)CCC32O)C2(C)C1=CC(O)C1OC12 (stereo not drawn)
DMS 114 small cell lung
  TGI: 0.0335 µM
M19-MEL melanoma
  TGI: 0.245 µM
P388 leukemia
  TGI: 154 µM
P388/ADR leukemia
  TGI: 250 µM
SN12K1 renal
  TGI: 0.139 µM
